Source: US7915050B2, “Regulatory genes for plant differentiation and growth, and use of the same” (National University Corporation Nagoya University, priority 2005, dated 2011)

Key:
[1] = target: T1, AtGID1b (Arabidopsis thaliana, UniProt Q9LYC1); test: Scatchard analysis of GA binding of AtGID1b; conditions: equilibrium conditions
T1 construct: made in house; host or cells: E. coli
T1 sequence (Q9LYC1 1-358): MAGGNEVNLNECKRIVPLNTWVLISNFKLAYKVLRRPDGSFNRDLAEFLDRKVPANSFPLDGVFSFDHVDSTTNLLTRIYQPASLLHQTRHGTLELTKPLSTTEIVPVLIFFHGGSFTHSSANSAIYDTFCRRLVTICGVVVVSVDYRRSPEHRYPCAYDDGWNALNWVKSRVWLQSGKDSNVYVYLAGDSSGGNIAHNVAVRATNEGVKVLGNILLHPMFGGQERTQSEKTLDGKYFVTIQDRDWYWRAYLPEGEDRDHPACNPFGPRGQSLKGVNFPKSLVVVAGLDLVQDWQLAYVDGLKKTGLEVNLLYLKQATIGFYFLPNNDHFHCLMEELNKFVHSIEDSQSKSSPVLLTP
Method: Panels A) to C) depict the results of Scatchard plot analyses for the GA binding of AtGID1. Results for AtGID1a (A), AtGID1b (B), and AtGID1c (C) are shown. The Kd values for 16,17-dihydro-GA4 was determined by adding various concentrations of GA to the assay mixture. Standard deviation (SD) was determined from these three independent measurements. The insets show time-course characteristics for the GA binding of AtGID1 and replacement (arrow) using an excess amount of non-labeled GA4 (0.125 mM). Panels D) to F) depict the GA binding activities of AtGID1 under different pH conditions. Results for AtGID1a (D), AtGID1b (E), and AtGID1c (F) are shown. The non-specific binding activity (UB) was determined by adding 0.125 mM GA4 to the assay solution, and this was subtracted from the total binding activity (B) to determine the specific binding activity (B-UB).
Specifically, the coding region of the AtGID1 gene was amplified by PCR using specific primers designed based on the full-length cDNA sequence of the AtGID1 gene and having appropriate restriction sites at each end. […]
The kinetics, ligand selectivity, and pH dependence of GA binding for the three AtGID1s identified as described above were examined using the tritiated GA4 derivative 16,17-dihydro-GA4. […] Furthermore, the kinetics of GA binding of each AtGID1 was analyzed under equilibrium conditions of GA at various concentrations.

[2] = target: T2, GID1 (Oryza sativa subsp. japonica, UniProt Q6L545); test: Competition of various GAs in the binding of the 3H-GA4 derivative to GID1 protein; parameters: species or system rice
T2 construct: GST (tag of vector pGEX-4T) (N); made in house
T2 sequence (Q6L545 whole entry): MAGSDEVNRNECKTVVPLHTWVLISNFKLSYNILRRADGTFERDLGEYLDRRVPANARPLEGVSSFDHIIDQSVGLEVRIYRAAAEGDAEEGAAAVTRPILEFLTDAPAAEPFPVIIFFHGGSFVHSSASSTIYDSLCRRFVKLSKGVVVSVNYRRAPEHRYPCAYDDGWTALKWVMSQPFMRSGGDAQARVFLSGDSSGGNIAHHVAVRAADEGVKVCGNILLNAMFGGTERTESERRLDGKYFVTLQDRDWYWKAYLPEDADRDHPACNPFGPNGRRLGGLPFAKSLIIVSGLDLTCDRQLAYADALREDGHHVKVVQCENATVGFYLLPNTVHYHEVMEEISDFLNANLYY
Method: In the gibberellin-binding assay, [1,2,16,17-^3H4]16,17-dihydro-GA4 was used as a labeled GA4. In vitro GA-binding assays were carried out using previous methods with some modifications (Nakajima, M. et al., Biochem. Biophys. Res. Comm. 241, 782-786 (1997)). The purified recombinant GID1 protein (400 pmol) was dissolved in 300 μl of binding buffer [20 mM Tris-HCl (pH 7.6), 5 mM 2-mercaptoethanol, and 0.1 M NaCl], and incubated with 100 μl of ^3H4-16,17-dihydroGA4 (6 pmol) for two hours at 25° C., either in the absence of non-labeled GA4 (total binding) or in the presence of 833-fold excess non-labeled GA4 (total non-specific binding). Then, 0.1 ml of the reaction mixture was loaded onto a NAP-5 column (Amersham Biosciences, Piscataway, N.J.). The eluate of the binding buffer (0.6 ml) was discarded, the subsequent eluate (0.2 ml) was collected, and the radioactivity was measured. The specific binding activity, reflecting the number of displaceable GA binding sites, was calculated by subtracting the amount of nonspecific binding from the amount of total binding. The same as above can also be carried out for other GAs.
Thus, it was postulated that, like GID2, GID1 is involved in the degradation of SLR1, or that GID1 functions upstream of SLR1 in GA signaling. […] Based on this phenotypic characteristic of gid1, it was predicted that GID1 was involved in GA perception. To verify this possibility, the interactions between GID1 and radioisotope-labeled GA was directly examined using non-equilibrium gel filtration (Nakajima, M. et al., Biochem. Biophys. Res. Comm. 241, 782-786 (1997)). […] Next, ligand specificity of GID1 was tested by using competition between the tritiated GA4 derivative and various GAs. The concentration of each GA that is required for a 50% inhibition (IC50) of the binding of the tritiated GA4 derivative to GID1 is shown in Table 1. […] The IC50 value for each of these GAs was well consistent with their physiological activity.

## CC1C[C@]23C[C@H]1CCC2[C@]12CC[C@H](O)[C@](C)(C(=O)O1)[C@H]2[C@@H]3C(=O)O (stereo partly shown) [H2-GA4, 16,17-dihydro-GA4]
[1]
  Kd: 480 nM
[2]
  affinity of recombinant GID1 for the GA (in words): high affinity
[2]; competition with tritiated GA4 derivative for binding to recombinant GID1, read-out: IC50 (concentration required for 50% inhibition)
  IC50: 1000 nM
[2]; relative competition, GA4 given as 100
  Rel % (relative value): (20) %
